Reference: ChEMBL document CHEMBL3588800, “Novel Bioactive Hybrid Compound Dual Targeting Estrogen Receptor and Histone Deacetylase for the Treatment of Breast Cancer” (J Med Chem, 2015)

Experiments:
[1] = molecular target: T1, Estrogen receptor (Homo sapiens, UniProt P03372); assay: Agonist activity at ER-alpha (unknown origin) transfected in HEK293T cells assessed as stimulation of transcriptional activity after 24 hrs by luciferase reporter gene assay; assay type: cell-based, HEK-293T
T1 sequence (P03372 whole entry): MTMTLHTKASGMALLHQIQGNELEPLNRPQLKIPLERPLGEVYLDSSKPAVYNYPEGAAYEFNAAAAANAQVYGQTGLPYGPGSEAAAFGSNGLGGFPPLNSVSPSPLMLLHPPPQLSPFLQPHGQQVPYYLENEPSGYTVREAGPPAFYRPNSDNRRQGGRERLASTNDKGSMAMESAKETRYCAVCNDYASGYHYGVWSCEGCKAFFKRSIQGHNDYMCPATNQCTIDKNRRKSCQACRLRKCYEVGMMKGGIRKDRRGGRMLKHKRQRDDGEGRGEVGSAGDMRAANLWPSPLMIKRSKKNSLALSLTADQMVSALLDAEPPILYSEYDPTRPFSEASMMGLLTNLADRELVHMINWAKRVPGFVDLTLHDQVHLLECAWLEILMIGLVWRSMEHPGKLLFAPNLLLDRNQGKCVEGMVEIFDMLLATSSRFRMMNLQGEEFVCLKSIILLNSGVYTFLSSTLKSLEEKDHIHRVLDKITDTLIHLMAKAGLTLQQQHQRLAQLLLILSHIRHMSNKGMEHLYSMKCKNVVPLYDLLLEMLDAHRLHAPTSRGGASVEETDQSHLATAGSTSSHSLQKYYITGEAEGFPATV

[2] = molecular target: T2, Estrogen receptor (Homo sapiens) (UniProt P03372); assay: Agonist activity at ER-alpha (unknown origin) transfected in HEK293T cells assessed as stimulation of transcriptional activity after 24 hrs by luciferase reporter gene assay relative to 17-beta estradiol; assay type: cell-based; conditions: HEK-293T
T2 sequence (whole entry): T1 sequence (P03372 whole entry)

[3] = molecular target: T3, Estrogen receptor beta (Homo sapiens, UniProt Q92731); assay: Agonist activity at ER-beta (unknown origin) transfected in HEK293T cells assessed as stimulation of transcriptional activity after 24 hrs by luciferase reporter gene assay relative to 17-beta estradiol; assay type: cell-based; conditions: HEK-293T
[4] = molecular target: T2, Estrogen receptor (Homo sapiens); assay: Antagonist activity at ER-alpha (unknown origin) transfected in HEK293T cells assessed as inhibition of transcriptional activity after 24 hrs by luciferase reporter gene assay relative to 17-beta estradiol; assay type: cell-based; conditions: HEK-293T
[5] = molecular target: T3, Estrogen receptor beta; assay: Antagonist activity at ER-beta (unknown origin) transfected in HEK293T cells assessed as inhibition of transcriptional activity after 24 hrs by luciferase reporter gene assay; assay type: cell-based, HEK-293T
[6] = molecular target: T3, Estrogen receptor beta; assay: Antagonist activity at ER-beta (unknown origin) transfected in HEK293T cells assessed as inhibition of transcriptional activity after 24 hrs by luciferase reporter gene assay relative to 17-beta estradiol; assay type: cell-based; conditions: HEK-293T
[7] = test system: MCF7; assay: cells; assay type: functional, cell-based; conditions: Homo sapiens, MCF7, 72 h
[8] = test system: DU-145; assay: cells; assay type: functional, cell-based; conditions: Homo sapiens, DU-145, 72 h
[9] = test system: Vero; assay: cells; assay type: ADME, cell-based; conditions: Chlorocebus sabaeus, 72 h
[10] = molecular target: T1, Estrogen receptor; assay: Binding affinity to human ER-alpha ligand binding domain after 2 hrs by competitive fluorometric binding assay
[11] = molecular target: T3, Estrogen receptor beta; assay: Binding affinity to human ER-beta ligand binding domain after 2 hrs by competitive fluorometric binding assay
[12] = molecular target: T3, Estrogen receptor beta; assay: Agonist activity at ER-beta (unknown origin) transfected in HEK293T cells assessed as stimulation of transcriptional activity after 24 hrs by luciferase reporter gene assay; assay type: cell-based, HEK-293T
[13] = molecular target: Histone deacetylase 1 (Homo sapiens, UniProt Q13547); assay: Inhibition of human recombinant HDAC1 after 15 mins by fluorogenic assay
[14] = molecular target: T1, Estrogen receptor; assay: Antagonist activity at ER-alpha (unknown origin) transfected in HEK293T cells assessed as inhibition of transcriptional activity after 24 hrs by luciferase reporter gene assay; assay type: cell-based, HEK-293T
[15] = molecular target: T4, Protein deacetylase HDAC6 (Homo sapiens, UniProt Q9UBN7); assay: Inhibition of human recombinant HDAC6 after 15 mins by fluorogenic assay; conditions: read-out: IC50
T4 sequence (Q9UBN7 whole entry): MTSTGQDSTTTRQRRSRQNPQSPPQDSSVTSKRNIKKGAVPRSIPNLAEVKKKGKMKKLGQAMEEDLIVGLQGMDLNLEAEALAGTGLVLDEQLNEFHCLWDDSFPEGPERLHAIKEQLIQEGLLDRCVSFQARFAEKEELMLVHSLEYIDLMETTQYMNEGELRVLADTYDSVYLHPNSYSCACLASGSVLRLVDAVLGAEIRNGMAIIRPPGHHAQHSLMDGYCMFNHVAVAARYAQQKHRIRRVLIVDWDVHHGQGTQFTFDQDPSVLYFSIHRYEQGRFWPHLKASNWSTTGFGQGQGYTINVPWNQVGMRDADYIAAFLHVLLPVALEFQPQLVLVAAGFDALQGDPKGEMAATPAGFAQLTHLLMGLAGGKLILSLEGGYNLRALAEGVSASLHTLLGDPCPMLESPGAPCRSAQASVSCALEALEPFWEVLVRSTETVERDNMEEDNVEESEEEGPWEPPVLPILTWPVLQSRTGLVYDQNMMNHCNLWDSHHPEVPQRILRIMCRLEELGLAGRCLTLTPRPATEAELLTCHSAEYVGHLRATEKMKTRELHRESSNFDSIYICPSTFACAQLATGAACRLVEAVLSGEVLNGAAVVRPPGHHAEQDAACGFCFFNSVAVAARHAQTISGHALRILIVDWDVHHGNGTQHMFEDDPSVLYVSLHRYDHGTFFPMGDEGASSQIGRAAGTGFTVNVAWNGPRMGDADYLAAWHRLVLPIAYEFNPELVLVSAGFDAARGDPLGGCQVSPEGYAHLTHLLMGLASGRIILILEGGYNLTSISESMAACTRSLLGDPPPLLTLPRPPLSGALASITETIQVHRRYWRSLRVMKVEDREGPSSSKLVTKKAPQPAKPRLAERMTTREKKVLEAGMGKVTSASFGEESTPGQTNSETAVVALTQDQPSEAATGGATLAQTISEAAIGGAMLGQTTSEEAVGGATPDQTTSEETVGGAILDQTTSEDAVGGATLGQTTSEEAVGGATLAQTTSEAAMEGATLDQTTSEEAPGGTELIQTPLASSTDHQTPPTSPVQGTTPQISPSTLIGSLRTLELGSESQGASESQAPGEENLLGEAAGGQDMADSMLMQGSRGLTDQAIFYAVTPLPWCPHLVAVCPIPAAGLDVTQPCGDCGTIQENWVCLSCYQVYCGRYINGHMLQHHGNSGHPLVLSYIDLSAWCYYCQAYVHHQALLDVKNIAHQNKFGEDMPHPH

[16] = Therapeutic index, ratio of IC50 for african green monkey Vero cells to IC50 for human MCF7 cells

Histone deacetylase 1, sequence (Q13547 whole entry): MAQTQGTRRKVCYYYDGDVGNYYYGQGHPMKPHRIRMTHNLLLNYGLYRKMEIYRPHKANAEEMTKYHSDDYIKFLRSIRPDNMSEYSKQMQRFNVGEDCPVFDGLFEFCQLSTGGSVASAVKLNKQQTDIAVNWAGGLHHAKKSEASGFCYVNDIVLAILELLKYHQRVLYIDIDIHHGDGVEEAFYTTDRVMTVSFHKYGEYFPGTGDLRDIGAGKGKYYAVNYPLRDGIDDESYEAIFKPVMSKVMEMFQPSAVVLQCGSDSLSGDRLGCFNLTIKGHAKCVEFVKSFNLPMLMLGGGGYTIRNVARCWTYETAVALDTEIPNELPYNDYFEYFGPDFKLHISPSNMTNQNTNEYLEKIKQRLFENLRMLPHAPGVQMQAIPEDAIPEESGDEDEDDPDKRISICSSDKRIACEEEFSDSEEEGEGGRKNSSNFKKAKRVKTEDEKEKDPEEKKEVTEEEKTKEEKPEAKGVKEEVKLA
T3 sequence (Q92731 whole entry): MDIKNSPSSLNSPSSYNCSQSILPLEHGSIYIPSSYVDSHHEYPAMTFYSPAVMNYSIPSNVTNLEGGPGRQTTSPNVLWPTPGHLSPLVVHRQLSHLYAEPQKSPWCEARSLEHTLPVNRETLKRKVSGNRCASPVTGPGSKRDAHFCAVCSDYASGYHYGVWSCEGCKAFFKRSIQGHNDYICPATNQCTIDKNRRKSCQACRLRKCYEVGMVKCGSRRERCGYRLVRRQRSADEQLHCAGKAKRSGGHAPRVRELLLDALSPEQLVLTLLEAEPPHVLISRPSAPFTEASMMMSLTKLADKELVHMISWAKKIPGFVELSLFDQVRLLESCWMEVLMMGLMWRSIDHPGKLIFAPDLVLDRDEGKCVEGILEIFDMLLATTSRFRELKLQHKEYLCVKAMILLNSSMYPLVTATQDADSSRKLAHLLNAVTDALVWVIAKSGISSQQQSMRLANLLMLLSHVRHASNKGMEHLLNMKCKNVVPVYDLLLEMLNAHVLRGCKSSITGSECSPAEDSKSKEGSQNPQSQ

| SMILES | EC50 [1] [µM] | Efficacy [2] [%] | Efficacy [3] [%] | Efficacy [4] [%] | IC50 [5] [µM] | Efficacy [6] [%] | IC50 [7] [µM] | IC50 [8] [µM] | Ki [10] [µM] | Ki [11] [µM] | EC50 [12] [µM] | IC50 ([13]; read-out: IC50) [µM] | IC50 [14] [µM] | IC50 [15] [µM] | IC50 [13] | IC50 [9] [µM] | selectivity ratio [16] |
| --- | --- | --- | --- | --- | --- | --- | --- | --- | --- | --- | --- | --- | --- | --- | --- | --- | --- |
| COc1ccccc1OS(=O)(=O)C1CC2OC1C(c1ccc(NC(=O)CCCCCCC(=O)O)cc1)=C2c1ccc(O)cc1 (racemic) | 0.016 | 84 | 65 | 104 | 0.29 | 78 | > 100 | > 100 | 0.159 | 0.0952 | 1.8 | – | – | – | – | > 100 | – |
| O=C(O)CCCCCCC(=O)Nc1ccc(OS(=O)(=O)C2CC3OC2C(c2ccc(O)cc2)=C3c2ccc(O)cc2)cc1 (stereo not given) | – | -10 | -5 | 25 | 0.16 | 89 | 19.1 | 34.8 | – | – | – | 0.107 | 0.05 | 8.34 | – | > 100 | – |
| O=C(O)CCCCCCC(=O)Nc1ccc(C2=C(c3ccc(O)cc3)C3CC(S(=O)(=O)Oc4ccc(O)cc4)C2O3)cc1 (racemic) | 2.42 | 79 | 69 | 99 | 11.7 | 23 | > 100 | > 100 | 0.133 | 0.039 | 13.4 | – | – | – | – | > 100 | – |
| Cc1cccc(C)c1OS(=O)(=O)C1CC2OC1C(c1ccc(NC(=O)CCCCCCC(=O)O)cc1)=C2c1ccc(O)cc1 (racemic) | 0.32 | 61 | -8 | 127 | – | 87 | > 100 | > 100 | > 5 | 0.971 | – | – | – | – | – | > 100 | – |
| O=C(O)CCCCCCC(=O)Nc1ccc(C2=C(c3ccc(O)cc3)C3CC(S(=O)(=O)Oc4cccc(O)c4)C2O3)cc1 (racemic) | 3.69 | 77 | 105 | 108 | – | 120 | 3.6 | 23.8 | – | – | 8.1 | – | – | 0.071 | Not Active | > 100 | – |
| COc1cccc(OS(=O)(=O)C2CC3OC2C(c2ccc(NC(=O)CCCCCCC(=O)O)cc2)=C3c2ccc(O)cc2)c1 (racemic) | 1.16 | 67 | 100 | 87 | – | 100 | 17.9 | 53.8 | 4.43 | 0.0815 | 1.1 | – | – | – | – | > 100 | > 5.59 |
| O=C(CCCCCCC(=O)Nc1ccc(C2=C(c3ccc(O)cc3)C3CC(S(=O)(=O)Oc4ccc(Br)cc4)C2O3)cc1)NO (racemic) | 1.14 | 33 | 21 | 101 | – | 91 | 17.1 | 11.3 | > 5 | – | 0.173 | – | – | 0.23 | Not Active | > 100 | – |

More lines, main results first:

| EC50 [1] [µM] | Efficacy [2] [%] | Efficacy [3] [%] | Efficacy [4] [%] | IC50 [5] [µM] | Efficacy [6] [%] | IC50 [7] [µM] | IC50 [8] [µM] | Ki [10] [µM] | Ki [11] [µM] | EC50 [12] [µM] | IC50 ([13]; read-out: IC50) [µM] | IC50 [14] [µM] | IC50 [15] [µM] | IC50 [13] | SMILES | IC50 [9] [µM] | selectivity ratio [16] |
| --- | --- | --- | --- | --- | --- | --- | --- | --- | --- | --- | --- | --- | --- | --- | --- | --- | --- |
| 18 | 38 | -13 | 99 | 0.28 | 85 | 24.8 | > 100 | – | – | – | – | – | – | – | O=C(O)CCCCCCC(=O)Nc1ccc(C2=C(c3ccc(O)cc3)C3CC(S(=O)(=O)Oc4ccc(F)cc4)C2O3)cc1 (racemic) | > 100 | – |
| 0.001 | 16 | 3 | 111 | – | 91 | 19.1 | 19.3 | – | – | – | – | – | – | – | COC(=O)CCCCCCC(=O)Nc1cccc(OS(=O)(=O)C2CC3OC2C(c2ccc(O)cc2)=C3c2ccc(O)cc2)c1 (stereo not given) | > 100 | – |
| – | -15 | 3 | 104 | 1.14 | -27 | 55.2 | 42.3 | 0.148 | 0.127 | – | 0.583 | – | 0.189 | – | O=C(CCCCCCC(=O)Nc1ccc(OS(=O)(=O)C2CC3OC2C(c2ccc(O)cc2)=C3c2ccc(O)cc2)cc1)NO (stereo not given) | > 100 | – |
| – | -3 | 24 | 43 | – | 117 | 7.9 | > 100 | – | – | 0.38 | 0.022 | 0.46 | 5.01 | – | Cc1ccccc1OS(=O)(=O)C1CC2OC1C(c1ccc(NC(=O)CCCCCCC(=O)O)cc1)=C2c1ccc(O)cc1 (racemic) | > 100 | – |
| – | -36 | -3 | 75 | 0.25 | 77 | > 100 | > 100 | 0.126 | 0.0605 | – | – | 1.7 | – | – | O=C(O)CCCCCCC(=O)Nc1ccc(C2=C(c3ccc(O)cc3)C3CC(S(=O)(=O)Oc4ccc(Br)cc4)C2O3)cc1 (racemic) | > 100 | – |
| – | 38 | 29 | 115 | 0.613 | 48 | 22.9 | 32.2 | 4.43 | > 5 | 0.054 | – | – | – | – | Cc1cccc(OS(=O)(=O)C2CC3OC2C(c2ccc(NC(=O)CCCCCCC(=O)NO)cc2)=C3c2ccc(O)cc2)c1 (racemic) | > 100 | – |
| – | 13 | -17 | -26 | 7.7 | 19 | 32.2 | 12.4 | 0.307 | 0.102 | – | 0.349 | 0.16 | 0.322 | – | O=C(CCCCCCC(=O)Nc1ccc(C2=C(c3ccc(O)cc3)C3CC(S(=O)(=O)Oc4ccc5ccccc5c4)C2O3)cc1)NO (stereo not given) | > 100 | – |
